These results are taken from ChEMBL document CHEMBL1201862, “PubChem BioAssay data set” (2004).

Calls of active or inactive are those of the source.

In series [1] the target is Dual specificity tyrosine-phosphorylation-regulated kinase 1A (Rattus norvegicus, UniProt Q63470). In kind it is biochemical, Homo sapiens.
For series [2], the target named is Cytochrome P450 2C9 (Homo sapiens, UniProt P11712).
The target of series [3] is T1, Cytochrome P450 3A4 (Homo sapiens, UniProt P08684).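 Note: CYP3A4 tested as one member of a cytochrome P450 panel screen.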
Series [4] deals with Cytochrome P450 2D6 (Homo sapiens, UniProt P10635).
Series [5] deals with T2, Cytochrome P450 1A2 (Homo sapiens, UniProt P05177).
T2 sequence (P05177 whole entry): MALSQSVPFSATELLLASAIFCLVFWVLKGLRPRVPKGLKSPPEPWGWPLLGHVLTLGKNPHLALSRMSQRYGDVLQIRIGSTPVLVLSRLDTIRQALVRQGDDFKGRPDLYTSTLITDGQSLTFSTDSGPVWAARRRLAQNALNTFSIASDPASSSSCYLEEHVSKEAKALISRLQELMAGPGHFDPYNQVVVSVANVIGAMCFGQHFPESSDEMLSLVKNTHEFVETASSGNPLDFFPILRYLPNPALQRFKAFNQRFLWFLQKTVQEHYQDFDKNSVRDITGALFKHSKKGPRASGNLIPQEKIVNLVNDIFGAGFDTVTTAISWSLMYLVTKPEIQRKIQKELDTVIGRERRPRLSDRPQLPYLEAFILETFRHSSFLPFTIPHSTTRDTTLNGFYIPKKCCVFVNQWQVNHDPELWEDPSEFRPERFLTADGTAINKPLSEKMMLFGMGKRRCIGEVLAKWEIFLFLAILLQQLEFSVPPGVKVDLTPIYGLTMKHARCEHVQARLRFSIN

Series [6] has as its target Cytochrome P450 2C19 (Homo sapiens, UniProt P33261). The experiment in a line: Cytochrome panel assay with activity outcomes. Panel member name: p450-cyp2c19 Compounds with AC50 equal or less than 10 uM are considered active. In kind it is functional.
Series [7] deals with T3, Endoribonuclease toxin MazF (Escherichia coli K-12, UniProt P0AE70).
T3 sequence (P0AE70 whole entry): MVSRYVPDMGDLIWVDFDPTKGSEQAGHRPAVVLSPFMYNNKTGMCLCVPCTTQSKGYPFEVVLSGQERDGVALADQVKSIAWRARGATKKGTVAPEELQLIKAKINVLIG
The experiment in a line: fluorescent RNA oligo signal without MazF, dose response, counter-screen for MazEF activator project, biochemical, fluorescence, single-stranded RNase substrate (AID 588502). In kind it is functional.

Series [8] has as its target T3, Endoribonuclease toxin MazF. As to the kind of experiment: MazF toxin RNase activators, dose response, biochemical, fluorescence, single-stranded RNA substrate, uHTS hits (AID 588481). In kind it is functional.
Series [9] addresses T4, Trace amine-associated receptor 1 (Homo sapiens, UniProt Q96RJ0).
T4 sequence (Q96RJ0 whole entry): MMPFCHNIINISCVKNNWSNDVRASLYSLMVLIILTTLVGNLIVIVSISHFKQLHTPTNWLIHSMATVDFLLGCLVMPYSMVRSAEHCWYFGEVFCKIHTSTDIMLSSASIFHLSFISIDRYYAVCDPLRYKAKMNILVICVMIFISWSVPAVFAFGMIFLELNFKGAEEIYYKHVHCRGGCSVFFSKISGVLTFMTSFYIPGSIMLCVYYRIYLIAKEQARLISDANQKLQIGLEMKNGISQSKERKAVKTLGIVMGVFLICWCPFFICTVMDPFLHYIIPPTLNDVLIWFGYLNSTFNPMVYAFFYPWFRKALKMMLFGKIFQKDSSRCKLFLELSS
The experiment in a line: Fluorescence-based cell-based high throughput dose response assay to identify agonists of the human trace amine associated receptor 1 (TAAR1). In kind it is functional.

Series [10] is described as follows: Luminescence Cell-Based Dose Confirmation HTS to Identify Inhibitors of Platelet Dense Granule Release. [Related pubchem assays: 1663 (Primary HTS), 1678 (Summary of Project)]. In kind it is functional.
The nature of series [11]: cells. In kind it is functional, cell-based.
A short description of series [12]: cells. In kind it is functional, cell-based. This is another data set of the same source.
Series [13] addresses T4, Trace amine-associated receptor 1. As to the kind of experiment: Counterscreen for agonists of the human trace amine associated receptor 1 (hTAAR1): Fluorescence-based cell-based high throughput dose response assay to identify hTAAR1 agonist that also desensitize TAAR1 receptor response. In kind it is functional. A general note: Counterscreens check selectivity or assay interference.

The target in series [14] is Luciferin 4-monooxygenase (Photinus pyralis, UniProt P08659). The experiment in a line: firefly luciferase enzyme inhibitors, dose response, biochemical, luminescence (AID 1891).
For series [15], the system named is Escherichia coli. The experiment in a line: microbe, parasite or virus in culture.
In series [16] the target is Delta-type opioid receptor (Homo sapiens, UniProt P41143). As to the kind of experiment: Counterscreen for agonists of heterodimerization of the mu 1 (OPRM1) and delta 1 (OPRD1) opioid receptors: Luminescence-based cell-based high throughput dose response assay to identify agonists of OPRD1 homodimerization. [Related pubchem assays (depositor defined):AID504326, AID504355, AID504692, AID504904, AID504905]. In kind it is functional.

For series [17], the target named is 5-hydroxytryptamine receptor 5A (Homo sapiens, UniProt P47898). The experiment in a line: Counterscreen for agonists of OPRM1-OPRD1 heterodimerization: luminescence-based cell-based high throughput dose response assay to identify agonists of 5-hydroxytryptamine (serotonin) 5A receptor (HTR5A). [Related pubchem assays (depositor defined):AID504326, AID504355, AID504692, AID504904, AID504905]. In kind it is functional.

For series [18], the target named is Mu-type opioid receptor (Homo sapiens, UniProt P35372). As to the kind of experiment: Counterscreen for agonists of heterodimerization of the mu 1 (OPRM1) and delta 1 (OPRD1) opioid receptors: Luminescence-based cell-based high throughput dose response assay to identify agonists of OPRM1 homodimerization. In kind it is functional.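 Note: U2OS cells expressing OPRM1 and beta-arrestin as split beta-galactosidase partners.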
In series [19] the test system is Escherichia coli. The experiment in a line: microbe, parasite or virus in culture. The source holds these as a separate data set.
The nature of series [20]: HepG2 cell cytotoxicity, dose response, cytotoxicity control, plate reader, cherry-pick, antagonist series (AID 743416). In kind it is functional, cell-based.
Series [21] relates to HEK293. The experiment in a line: inhibitors of LMP1-driven NF-kB reporter, dose response, cell-based, HEK293, luciferase, cherry-pick (AID 588343). In kind it is functional. To be noted: Homo sapiens.
Series [22] deals with T5, Polyadenylate-binding protein 1 (Homo sapiens, UniProt P11940). The experiment in a line: PABP1 MLLE–PAM2 binding inhibitor potency, dose response, biochemical, fluorescence polarization, FITC-PAM2 peptide (AID 602259). In kind it is functional. Particulars: read-out: IC50_Mean.
Series [23] has as its target T5, Polyadenylate-binding protein 1. The experiment in a line: PABP1 MLLE–PAM2 interaction inhibitors, dose response, miRNA deadenylation inhibitor project, biochemical, fluorescence polarization, Cy5-PAM2 peptide, secondary (AID 602260). In kind it is functional. Particulars: read-out: IC50_Mean.
A short description of series [24]: LGR2 antagonists, dose response, cell-based, HEK293, CRE-luciferase reporter, cherry pick, set 2 (AID 743343).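 Note: transfected cells were stimulated with diluted bursicon conditioned medium after compound addition.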 In kind it is functional. A general note: Reporter assays use an easily measured gene product as a stand-in for the process of interest.
Series [25] in a line: MC4R antagonists, dose response, counter-screen for LGR2 antagonist project, cell-based, plate reader, cherry pick (AID 743444).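 Note: transfected HEK 293 cells stimulated with alpha-MSH peptide; potency of inhibitors of the alpha-MSH evoked signal.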 In kind it is functional.
For series [26], the target named is T6, Short transient receptor potential channel 4 (Mus musculus, UniProt Q9QUQ5).
T6 sequence (Q9QUQ5 whole entry): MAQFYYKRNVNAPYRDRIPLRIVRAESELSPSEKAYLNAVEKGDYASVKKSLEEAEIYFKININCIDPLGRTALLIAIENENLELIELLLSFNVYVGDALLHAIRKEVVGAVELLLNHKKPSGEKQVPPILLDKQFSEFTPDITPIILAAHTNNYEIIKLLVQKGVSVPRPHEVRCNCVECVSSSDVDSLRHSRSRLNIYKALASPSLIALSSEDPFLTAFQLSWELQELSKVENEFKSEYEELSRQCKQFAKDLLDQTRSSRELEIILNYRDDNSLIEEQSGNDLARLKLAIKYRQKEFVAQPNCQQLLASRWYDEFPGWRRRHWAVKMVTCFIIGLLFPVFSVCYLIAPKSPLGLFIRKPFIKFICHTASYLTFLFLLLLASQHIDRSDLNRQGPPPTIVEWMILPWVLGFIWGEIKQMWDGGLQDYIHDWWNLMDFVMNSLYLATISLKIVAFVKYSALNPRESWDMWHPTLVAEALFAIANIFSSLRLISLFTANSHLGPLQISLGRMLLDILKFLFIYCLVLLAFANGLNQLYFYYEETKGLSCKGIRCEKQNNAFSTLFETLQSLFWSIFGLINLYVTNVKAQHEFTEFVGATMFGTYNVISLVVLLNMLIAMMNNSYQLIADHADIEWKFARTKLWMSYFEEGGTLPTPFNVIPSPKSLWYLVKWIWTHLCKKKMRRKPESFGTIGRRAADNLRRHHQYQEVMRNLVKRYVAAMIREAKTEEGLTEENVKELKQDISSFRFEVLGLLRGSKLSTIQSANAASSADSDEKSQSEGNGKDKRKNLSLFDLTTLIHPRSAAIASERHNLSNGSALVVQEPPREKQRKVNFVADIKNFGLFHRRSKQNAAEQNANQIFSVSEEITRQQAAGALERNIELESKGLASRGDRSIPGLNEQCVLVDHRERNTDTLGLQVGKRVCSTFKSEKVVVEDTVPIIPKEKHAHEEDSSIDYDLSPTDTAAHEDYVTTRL
The experiment in a line: mouse TRPC4 channel inhibitors, dose response, cell-based, HEK293 TRPC4/mu-opioid, Fluo-4 calcium (AID 434942).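 Note: potency of inhibitors blocking the TRPC4 calcium response.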 In kind it is functional.

Series [27] addresses T1, Cytochrome P450 3A4. The source holds these as a separate data set.
Series [28] has as its target T6, Short transient receptor potential channel 4. As to the kind of experiment: mouse TRPC4 channel activators, dose response, cell-based, HEK293 TRPC4/mu-opioid, Fluo-4 calcium (AID 434937). In kind it is functional.

Cytochrome P450 2D6, sequence (P10635 whole entry): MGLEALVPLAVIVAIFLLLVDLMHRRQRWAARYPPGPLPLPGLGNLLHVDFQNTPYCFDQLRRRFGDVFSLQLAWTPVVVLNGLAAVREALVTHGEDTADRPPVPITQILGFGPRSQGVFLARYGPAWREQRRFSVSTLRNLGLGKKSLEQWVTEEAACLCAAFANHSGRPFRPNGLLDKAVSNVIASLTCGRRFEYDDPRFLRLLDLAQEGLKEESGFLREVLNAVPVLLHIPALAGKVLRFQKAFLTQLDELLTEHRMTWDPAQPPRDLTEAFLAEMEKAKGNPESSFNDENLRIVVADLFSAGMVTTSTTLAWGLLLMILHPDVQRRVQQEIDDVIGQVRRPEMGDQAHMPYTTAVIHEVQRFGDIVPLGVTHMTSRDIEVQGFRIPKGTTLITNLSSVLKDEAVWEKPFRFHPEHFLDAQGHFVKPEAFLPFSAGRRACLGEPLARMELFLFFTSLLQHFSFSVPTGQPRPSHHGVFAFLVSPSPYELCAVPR
T1 sequence (P08684 whole entry): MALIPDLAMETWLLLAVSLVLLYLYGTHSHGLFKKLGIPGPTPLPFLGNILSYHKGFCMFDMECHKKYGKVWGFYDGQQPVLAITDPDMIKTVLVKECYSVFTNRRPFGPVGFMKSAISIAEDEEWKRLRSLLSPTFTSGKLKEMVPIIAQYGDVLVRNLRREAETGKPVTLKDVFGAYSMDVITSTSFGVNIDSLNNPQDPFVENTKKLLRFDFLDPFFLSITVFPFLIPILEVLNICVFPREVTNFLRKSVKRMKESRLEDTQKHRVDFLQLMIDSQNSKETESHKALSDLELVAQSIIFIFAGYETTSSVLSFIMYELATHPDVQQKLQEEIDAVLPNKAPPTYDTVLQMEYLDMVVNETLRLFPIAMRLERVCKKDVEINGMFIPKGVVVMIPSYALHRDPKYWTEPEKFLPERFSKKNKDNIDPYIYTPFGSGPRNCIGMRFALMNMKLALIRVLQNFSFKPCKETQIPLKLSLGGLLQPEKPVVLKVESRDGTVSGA
T5 sequence (P11940 whole entry): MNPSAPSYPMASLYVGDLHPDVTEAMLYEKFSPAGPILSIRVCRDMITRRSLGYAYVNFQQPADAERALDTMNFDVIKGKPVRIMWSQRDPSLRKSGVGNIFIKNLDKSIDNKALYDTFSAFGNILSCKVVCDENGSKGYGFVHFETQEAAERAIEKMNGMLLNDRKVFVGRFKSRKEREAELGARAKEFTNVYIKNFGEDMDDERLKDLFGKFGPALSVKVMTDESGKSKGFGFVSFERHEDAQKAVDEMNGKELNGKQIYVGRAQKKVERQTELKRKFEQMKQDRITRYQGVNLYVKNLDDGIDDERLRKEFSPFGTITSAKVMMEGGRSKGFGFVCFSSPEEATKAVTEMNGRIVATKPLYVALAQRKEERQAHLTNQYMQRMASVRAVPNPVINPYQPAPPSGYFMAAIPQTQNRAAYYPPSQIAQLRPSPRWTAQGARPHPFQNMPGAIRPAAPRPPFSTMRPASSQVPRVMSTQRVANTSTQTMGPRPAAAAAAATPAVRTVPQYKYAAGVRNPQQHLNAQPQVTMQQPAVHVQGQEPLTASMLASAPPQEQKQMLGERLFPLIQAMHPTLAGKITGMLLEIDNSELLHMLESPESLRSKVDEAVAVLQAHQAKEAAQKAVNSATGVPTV
Cytochrome P450 2C19, sequence (P33261 whole entry): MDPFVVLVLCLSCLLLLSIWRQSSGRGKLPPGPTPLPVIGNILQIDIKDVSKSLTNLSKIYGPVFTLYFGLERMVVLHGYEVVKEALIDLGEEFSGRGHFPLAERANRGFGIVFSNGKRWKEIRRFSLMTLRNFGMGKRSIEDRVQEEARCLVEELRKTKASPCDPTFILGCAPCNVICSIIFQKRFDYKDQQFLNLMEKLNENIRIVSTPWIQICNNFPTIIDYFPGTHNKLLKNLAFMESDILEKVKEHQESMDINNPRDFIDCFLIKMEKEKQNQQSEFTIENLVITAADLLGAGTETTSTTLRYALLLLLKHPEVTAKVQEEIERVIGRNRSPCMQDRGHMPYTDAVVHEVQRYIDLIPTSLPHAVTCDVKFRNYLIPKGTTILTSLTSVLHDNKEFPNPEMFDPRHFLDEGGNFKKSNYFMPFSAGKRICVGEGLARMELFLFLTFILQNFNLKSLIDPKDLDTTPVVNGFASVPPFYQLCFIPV
5-hydroxytryptamine receptor 5A, sequence (P47898 whole entry): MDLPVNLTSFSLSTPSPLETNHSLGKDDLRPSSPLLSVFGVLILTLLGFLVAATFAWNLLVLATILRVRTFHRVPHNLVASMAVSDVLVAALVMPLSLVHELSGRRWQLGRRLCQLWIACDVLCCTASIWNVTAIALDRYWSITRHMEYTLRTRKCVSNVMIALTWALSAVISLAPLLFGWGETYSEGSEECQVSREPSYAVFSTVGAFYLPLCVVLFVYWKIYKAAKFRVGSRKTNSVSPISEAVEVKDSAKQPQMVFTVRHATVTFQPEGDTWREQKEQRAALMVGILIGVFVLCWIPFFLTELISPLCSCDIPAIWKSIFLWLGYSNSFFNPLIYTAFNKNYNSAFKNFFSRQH
Luciferin 4-monooxygenase, sequence (P08659 whole entry): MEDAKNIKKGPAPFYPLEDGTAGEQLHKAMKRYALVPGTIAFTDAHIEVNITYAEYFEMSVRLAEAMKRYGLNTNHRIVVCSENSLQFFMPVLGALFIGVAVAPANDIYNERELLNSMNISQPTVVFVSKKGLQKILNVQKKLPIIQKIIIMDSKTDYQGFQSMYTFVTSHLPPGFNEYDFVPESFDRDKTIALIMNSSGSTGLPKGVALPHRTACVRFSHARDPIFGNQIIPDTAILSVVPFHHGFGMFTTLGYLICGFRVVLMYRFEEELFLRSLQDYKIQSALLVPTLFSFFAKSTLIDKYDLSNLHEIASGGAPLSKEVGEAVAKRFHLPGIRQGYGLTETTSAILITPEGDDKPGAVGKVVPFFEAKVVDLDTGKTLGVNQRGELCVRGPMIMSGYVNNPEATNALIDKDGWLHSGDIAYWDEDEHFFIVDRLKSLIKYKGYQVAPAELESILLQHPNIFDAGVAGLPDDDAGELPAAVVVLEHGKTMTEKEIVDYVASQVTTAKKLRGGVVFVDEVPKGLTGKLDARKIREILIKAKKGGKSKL
Cytochrome P450 2C9, sequence (P11712 whole entry): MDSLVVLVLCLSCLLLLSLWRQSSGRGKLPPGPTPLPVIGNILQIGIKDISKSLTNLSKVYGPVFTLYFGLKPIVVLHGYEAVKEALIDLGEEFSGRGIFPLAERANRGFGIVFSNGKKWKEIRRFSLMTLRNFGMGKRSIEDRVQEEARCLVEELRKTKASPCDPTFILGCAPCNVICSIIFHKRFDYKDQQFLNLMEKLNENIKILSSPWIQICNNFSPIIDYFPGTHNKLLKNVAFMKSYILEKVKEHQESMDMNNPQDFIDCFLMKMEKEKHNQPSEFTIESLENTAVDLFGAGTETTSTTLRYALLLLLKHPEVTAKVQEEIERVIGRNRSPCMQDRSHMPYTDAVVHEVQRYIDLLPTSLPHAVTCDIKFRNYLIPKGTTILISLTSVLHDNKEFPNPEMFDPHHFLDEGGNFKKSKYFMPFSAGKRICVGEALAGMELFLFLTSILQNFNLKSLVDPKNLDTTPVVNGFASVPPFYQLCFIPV
Delta-type opioid receptor, sequence (P41143 whole entry): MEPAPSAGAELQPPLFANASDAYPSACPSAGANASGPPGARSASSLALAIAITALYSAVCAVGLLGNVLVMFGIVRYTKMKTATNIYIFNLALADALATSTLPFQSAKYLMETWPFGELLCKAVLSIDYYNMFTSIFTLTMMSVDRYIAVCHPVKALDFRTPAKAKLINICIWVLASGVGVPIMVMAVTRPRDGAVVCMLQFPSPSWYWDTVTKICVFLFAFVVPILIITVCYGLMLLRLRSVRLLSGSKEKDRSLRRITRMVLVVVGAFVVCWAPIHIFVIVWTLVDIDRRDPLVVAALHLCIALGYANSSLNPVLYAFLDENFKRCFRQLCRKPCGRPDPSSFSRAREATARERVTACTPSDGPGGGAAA
Mu-type opioid receptor, sequence (P35372 whole entry): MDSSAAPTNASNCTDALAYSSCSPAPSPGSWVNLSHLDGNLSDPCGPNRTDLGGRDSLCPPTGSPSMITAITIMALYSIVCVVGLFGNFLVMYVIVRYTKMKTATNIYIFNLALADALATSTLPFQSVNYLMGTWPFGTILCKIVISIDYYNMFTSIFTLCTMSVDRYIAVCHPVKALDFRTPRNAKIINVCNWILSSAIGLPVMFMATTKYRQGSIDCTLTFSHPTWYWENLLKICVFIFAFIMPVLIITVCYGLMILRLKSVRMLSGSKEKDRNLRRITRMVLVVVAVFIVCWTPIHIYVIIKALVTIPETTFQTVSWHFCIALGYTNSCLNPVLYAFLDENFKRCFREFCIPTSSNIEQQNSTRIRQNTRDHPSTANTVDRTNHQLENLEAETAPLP

Take `O=c1oc2c(-c3cccc(F)c3)cc(O)cc2s1`: in series [1], the AC50 was 3.74 µM (active).

On to `N[C@@H](CCC(=O)O)C(=O)O` [GLUTAMIC ACID], for which the AC50 result in series [2] was “inactive”; in series [3], “inactive”; in series [4], “inactive”; in series [5] it was 39.8 µM (inconclusive); in series [6], “inactive”.

Turning to `COc1ccc(NC(=O)CN(C)S(=O)(=O)c2ccccc2)c([N+](=O)[O-])c1`, the EC50 in series [7] and in [8] was > 99 µM (inactive) each time.

In the case of `Nc1nc(Nc2cccc(F)c2)nc2ccccc12`, the EC50 in [9] is 0.364 µM (active); in [10], 7.18 µM (active); in [11] it was > 29.9 µM (inactive); in series [14] it was 0.853 µM (active). Moreover, the IC50 in series [12] was > 29.9 µM (inactive); in series [13], 1.65 µM (active). Further, in [1], the AC50 was 4.73 µM (active).

Consider `N#Cc1cccc(-c2nc3cnc(Oc4cccc(Cl)c4)nc3n(C3CC3)c2=O)c1`, for which the concentration at half-maximal activity (AC50) entry in series [3] is listed as “inconclusive”.

With `O=C(N/N=C/C1=C(N2CCOCC2)C(=C\c2ccccc2)/CC1)Nc1ccccc1`, the AC50 in series [15] was 67.6 µM (active).

As for `OC(CNCCC(c1ccccc1)c1ccccc1)COc1ccccc1` (stereo unspecified), the EC50 in [16], in series [17] and in series [18] was > 92.5 µM (inactive) in each case.

`CC(C)=NOC[C@@H](O)COCc1ccco1`: the half-maximal activity concentration (AC50) entry in [4] was “inconclusive”.

`O=[N+]([O-])c1ccc(CSc2ncnc3c2ncn3[C@@H]2O[C@@H](CO)[C@@H](O)[C@H]2O)cc1`: in series [3], the AC50 entry is recorded as “inconclusive”.

In the case of `COc1cccc(-c2cc(C(=O)N3CCc4ccccc4C3)[nH]n2)c1`, the EC50 in series [7] and in series [8] was > 99 µM (inactive) throughout.

With `CCOC(=O)N1CCC(NC(=O)c2oc3c(c2C)-c2n[nH]cc2CC3)CC1`, the figures for the AC50 in series [19] and in series [15] were 18.4 µM (active) and 67 µM (active), respectively.

On to `O=C(CN1C(=O)c2ccccc2S1(=O)=O)Nc1ncc(Cl)cc1Cl`, for which the AC50 in series [20] was > 52 µM (inactive); in series [21], 3.85 µM (active); in series [24], 8.67 µM (active); in series [25], 9.06 µM (active). The IC50 in [22] is 27.3 µM (inactive); in [23] it was > 66 µM (inactive).

With `c1ccc(NC(=NCc2ccco2)c2ccccc2)cc1`, the AC50 in series [15] was 47.6 µM (active). Moreover, in [26], the EC50 is 18.8 µM (active).

Consider `CO[C@@H]1COC(=O)[C@@H](C)NC(=O)C/C=C\[C@@H](C)[C@H](NS(=O)(=O)c2ccc(C)cc2)COC(=O)[C@H](C)NC(=O)C/C=C\[C@H]1C`, for which the AC50 was 5.01 µM (inconclusive) in series [27] and “inconclusive” in [4].

Regarding `Clc1ccc(OCCNCCc2ccccc2)cc1`, the half-maximal effective concentration (EC50) is 3.81 µM (active) in series [9], 4.73 µM (active) in series [28] and 21.9 µM (inactive) in series [11]. Besides, the IC50 is > 29.9 µM (inactive) in series [12] and 9.59 µM (active) in series [13].

As a reminder, the AC50 is the concentration giving half of the maximal activity seen. In general, EC50 refers to the concentration at which the effect is half-maximal.
